Data taken from patent US20240034812A1, “BISPECIFIC ANTIBODY AGAINST CD3 AND CD20 IN COMBINATION THERAPY FOR TREATING DIFFUSE LARGE B-CELL LYMPHOMA” (GENMAB A/S, priority 2020, published 2024).
Read-outs that look alike come from different tables or passages of the source.

Experiments:
T cells = test: T cell viability after pre-incubation with CHOP components; assay type: cell-based
CD20 = target: T1, CD20 (Homo sapiens, UniProt P11836); conditions: bind to a different epitope; cited from earlier work
T1 sequence (P11836 1-297): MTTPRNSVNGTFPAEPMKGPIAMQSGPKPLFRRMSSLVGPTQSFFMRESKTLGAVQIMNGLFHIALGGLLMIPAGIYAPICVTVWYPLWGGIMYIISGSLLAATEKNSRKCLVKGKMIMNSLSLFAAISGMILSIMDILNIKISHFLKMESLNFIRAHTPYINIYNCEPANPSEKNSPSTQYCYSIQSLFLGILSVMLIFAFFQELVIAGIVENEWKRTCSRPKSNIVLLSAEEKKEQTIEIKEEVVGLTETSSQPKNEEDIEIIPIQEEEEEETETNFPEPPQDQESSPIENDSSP

[1] = test system: CD20-expressing Raji-luc tumor cells; conditions: even in the presence of an excess of IgG1-RTX-FEAR; Engelberts et al. 2020; cited from earlier work
[2] = test system: primary DLBCL and follicular lymphoma patient biopsies; conditions: cited from earlier work
[3] = test system: relapsed/refractory (R/R) B-NHL; test: epcoritamab monotherapy clinical trial (NCT03625037); assay type: in vivo
Text: Epcoritamab as monotherapy is currently in a clinical trial for the treatment of relapsed/refractory (R/R) B-NHL (ClinicalTrials.gov Identifier: NCT03625037).

[4] = test system: previously untreated, high-risk (IPI or R-IPI≥3) DLBCL; test: Phase 1b open-label trial of epcoritamab in combination with R-CHOP; assay type: in vivo, human; conditions: as of Sep. 8, 2021; CRS under epcoritamab + R-CHOP
Method: Epcoritamab is initially be administered in combination with R-CHOP in a 3-subject cohort. DLTs are evaluated during the first 28 days.
Cyclophosphamide (750 mg/m^2) is administered intravenously on day 1 once every three weeks (Q3 W) of cycles 1-6 or 1-8. Doxorubicin (50 mg/m^2) is administered intravenously on day 1 once every three weeks (Q3 W) of cycles 1-6 or 1-8. Vincristine (1.4 mg/m^2, with a recommended cap of 2 mg) is administered intravenously on day 1 once every three weeks (Q3 W) of cycles 1-6 or 1-8. Prednisone (100 mg/day) is administered intravenously or orally on five consecutive days (days 1-5) every three weeks (Q3 W) of cycles 1-6 or 1-8.
MRD negativity rate, is defined as the proportion of subjects with at least 1 undetectable MRD result according to the specific threshold, prior to initiation of subsequent therapy.

[5] = T cells pre-incubated 16 hours, data not shown

O=P1(N(CCCl)CCCl)NCCCO1 (centres unmarked) [cyclophosphamide, 2H-1,3,2-Oxazaphosphorin-2-amine, N,N-bis(2-chloroethyl)tetrahydro-, 2-oxide]
T cell viability after pretreatment (T cells): did not impact T cell viability

COc1cccc2c1C(=O)c1c(O)c3c(c(O)c1C2=O)C[C@@](O)(C(=O)CO)C[C@@H]3O[C@H]1C[C@H](N)[C@H](O)[C@H](C)O1 [doxorubicin]
T cell viability after pretreatment (T cells; [5]): led to a reduction in T cell viability

C[C@]12C=CC(=O)C=C1CC[C@@H]1[C@@H]2C(=O)C[C@@]2(C)[C@H]1CC[C@]2(O)C(=O)CO [prednisone, 17,21-dihydroxypregna-1,4-diene-3,11,20-trione]
T cell viability after pretreatment (T cells; [5]): did not impact T cell viability

CC[C@]1(O)C[C@H]2CN(CCc3c([nH]c4ccccc34)[C@@](C(=O)OC)(c3cc4c(cc3OC)N(C=O)[C@H]3[C@@](O)(C(=O)OC)[C@H](OC(C)=O)[C@]5(CC)C=CCN6CC[C@]43[C@@H]65)C2)C1 [vincristine]
T cell viability after pretreatment (T cells; [5]): did not impact T cell viability

IgG1-CD20: anti-CD20 antibody of which the CD20 arm of epcoritamab is derived
competition for CD20 binding (CD20): compete for CD20 binding

epcoritamab: IgG1 bispecific CD3xCD20 antibody; heavy and light chain pairs SEQ ID NOs: 24/25 (CD3ε arm) and 26/27 (CD20 arm); CAS 2134641-34-0
tumor growth [1]: effectively reduce tumor growth
T-cell-mediated cytotoxicity ([2]; biopsies taken a certain amount of time after anti-CD20 antibody, Van der Horst et al. 2019): induced T-cell-mediated cytotoxicity
tumor cell kill ([2]; biopsy taken 2 weeks after administering anti-CD20 antibody): up to 40%
tolerated dose ([3]; human, in vivo): at least 48 mg
dose-limiting toxicities ([3]; monotherapy, R/R B-NHL patients, preliminary data): no dose-limiting toxicities reported

tocilizumab: a humanized antibody against IL-6 receptor, commercially available as, e.g., ACTEMRA
outcome of the Grade 3 CRS episode after treatment [4]: recovered
